Laboratory results reported in patent publication EP4578855A1, “PROLYL HYDROXYLASE INHIBITOR AND USE THEREOF” (Suzhong Pharmaceutical Group Co., Ltd., priority 2022, dated 2024).
Several values for one entry are separate records, joined by “and”; a condition that tells them apart may be missing. Identical values can stand only once.

Test system: EPO (erythropoietin)
Assay: Pharmacological evaluation: influence of continuous administration on EPO level
Assay type: in vivo, SD rats
Procedure: This experiment was intended to evaluate an influence of continuous administration of the compounds prepared in Embodiments 12, 13 and 14 on EPO (erythropoietin) in SD rats.
• Line: SD (Sprague Dawley) • Weeks of age and weight: 8 weeks, weight 200 g to 220 g • Sex: male • Animal source: Beijing Vital River Laboratory Animal Technology Co., Ltd.
• Positive drug: Enarodustat • Description: commercialized drugs approved for marketing in Japan • Specification and content: 2 mg JTZ-951(Enarodustat), 140 capsules/box
After a week of adaptive feeding, SD rats were randomly divided into 3 groups, 6 rats in each group, which were namely a blank group, a positive drug group (Enarodustat) and a group of compound in Embodiment 12. An Enarodustat tablet was crushed by a mortar, then quantitatively added with 0.5% methyl cellulose, and magnetically stirred and mixed evenly; and the compound prepared in Embodiment 12 was weighed, then quantitatively added with 0.5% methyl cellulose, and magnetically stirred and mixed evenly. […] The drug was given once a day for 14 consecutive days, and blood was taken to measure an EPO level 4 hours after the drug was given on the 14th day.

O=C(O)CNC(=O)c1c(O)cc(C2CCc3ccccc3C2)n2ncnc12 (single isomer, unassigned) [Compound in Embodiment 13, [(7-hydroxy-5-(1,2,3,4-tetrahydronaphthalene-2-yl)-[1,2,4]triazolo[1,5-a]pyridine-8-carbonyl)amino]acetic acid]
EPO levels in serum of the rats (after 14 days of administration, in words): increased significantly | EPO levels in plasma of the rats (after administration, compared with the group of positive drug Enarodustat, in words): significantly higher | EPO level after 14 days of administration (individual rats 1-6, 0.3 mg/mL, 10 mL/kg, once a day for 14 consecutive days, blood 4 hours after the drug on the 14th day, 2904.6 pg/mL was an upper limit of measurement): ≥ 2904.6 pg/mL (3×) and 2697.4 pg/mL and 2658.5 pg/mL and 2772.1 pg/mL | EPO level after 14 days of administration, Mean (mean of 6 rats, 0.3 mg/mL, 10 mL/kg, once a day for 14 consecutive days, blood 4 hours after the drug on the 14th day, 2904.6 pg/mL was an upper limit of measurement): 2807.0 pg/mL
